What was measured:
Jurkat T leukemia cells = assay: Propidium iodide uptake assay of apoptosis induced by chemotherapeutic agents or UV irradiation in Jurkat T cells; format: cell-based; conditions: 18 h
Procedure: Jurkat T leukemia cells were grown in RPMI 1640 media (Life Technologies, Inc.)+10% FCS (Sigma Chemical Company) in a 5% CO2 -95% humidity incubator at 37° C., and maintained at a cell density between 4 and 8×10^5 cells/ml. 1×10^6 cells were treated with Doxorubicin (1 μM) or Paclitaxel (20 μM) or UV irradiation (40 J/m^2) with or without the caspase inhibitor Z-VD-fmk (10 μM) and incubated at 37° C. for 18 h. As a control, cells were also incubated with DMSO. At 18 h cells were observed under phase contrast microscopy to visualize any morphological changes induced by the apoptotic stimuli. Cells were assessed for viability by a propidium iodide uptake assay. Briefly, 20 μl of propidium solution containing 100 μg/ml of propidium iodide was added to 200 μl of cells and transferred to 12×75mm polystyrene tubes and analyzed on a flow cytometer. All flow cytometry analyses were performed on FACScalibur (Becton Dickinson) using CellQuest analysis software.
FIGS. 1A-C depict photographs of Jurkat cells: FIG. 1A, DMSO treated control cells; FIG. 1B, cells treated with doxorubicin (1 μM); FIG. 1C, cells treated with doxorubicin (1 μM) and Z-VD-fmk (10 μM). FIG. 1D depicts a bar graph showing percentage of cell apoptosis as measured by a propidium iodide uptake assay: a, DMSO treated control cells; b, cells treated with doxorubicin; c, cells treated with doxorubicin and Z-VD-fmk.
FIGS. 2A-C depict photographs of Jurkat cells: FIG. 2A, DMSO treated control cells; FIG. 2B, cells treated with paclitaxel (20 μM); FIG. 2C, cells treated with paclitaxel (20 μM) and Z-VD-fink (10 μM). FIG. 2D depicts a bar graph showing percentage of cell apoptosis as measured by a propidium iodide uptake assay: a, DMSO treated control cells; b, cells treated with paclitaxel; c, cells treated with paclitaxel and Z-VD-fink.
FIGS. 3A-C depict photographs of Jurkat cells: FIG. 3A, DMSO treated control cells; FIG. 3B, cells treated with UV irradiation (40 J/m^2); FIG. 3C, cells treated with UV irradiation (40 J/m2) and Z-VD-fmk (10 μM). […]

[1] = test system: oral mucositis induced by acute irradiation in hamsters; assay: Radiation-induced oral mucositis in hamsters (acute radiation model, mucositis scoring); format: in vivo, Golden Syrian hamsters; conditions: for days with ulcerations (animal days with mucositis score of 3 or more) / daily mucositis scores, rank sum analysis vs vehicle control / reduction in ulceration vs vehicle control: day −2 to day 16; for days with ulcerations (animal days with mucositis score of 3 or more): vehicle control 56 days
Text: A hamster model of chemotherapy-induced mucositis and, more recently, a model of radiation-induced mucositis has been developed (Sonis S. et al. Oral Surg. Oral. Med. Oral Pathol. 69:437-443 (1990) and Sonis S. et al. Cancer, 85:2103-13 (1999)). In the latter model, specific doses of acute radiation are targeted to the designated mucosa, with protection of other areas by a customized lead shield.
The objective of this study was to assess the effect of the topical and IP administration of (3R,S)-5-fluoro-3-[(2S)-3-methyl-1-oxo-2-(phenylcarbam-oyloxy)butyl]amino-4-oxo-pentanoic acid (a caspase inhibitor described in U.S. Application Ser. Nos. 60/151,077 and 60/158,373), in attenuating the development and progress of oral mucositis induced by acute irradiation in hamsters. Mucositis scores in hamsters receiving different doses of the compound were compared to those in hamsters receiving vehicle control, in order to detect statistically significant differences in the onset, duration or severity of the disorder.
Thirty-two (32) hamsters were randomly divided into four treatment groups with eight (8) animals per group. Each group was assigned a different treatment as follows:
Group 1: Vehicle control—topical vehicle control, tid (3 times daily), day −2 to day 16.
Group 2: Test compound at 20 mg/kg, IP once per day, day −2 to day 16.
Group 3: Test compound at 0.36 mg/ml (0.2 ml), topical, tid, day −2 to day 16.
Group 4: Test compound at 0.072 mg/ml (0.2 ml), topical, tid, day −2 to day 16.
viii) Starting on day 6 and continuing every second day thereafter (days 8, 10, 12, 14, 16, 18, 20, 22, 24, 26 & 28), each animal was photographed and evaluated for mucositis scoring.
dose of radiation (35 Gy/dose) was administered to all animals on Day 0. Radiation was generated with a 250 kilovolt potential (15-mA) source at a focal distance of 50 cm, hardened with a 0.35 mm Cu filtration system. Irradiation targeted the left buccal pouch mucosa at a rate of 121.5 cGy/minute. Prior to irradiation, animals were anesthetized with an intraperitoneal injection of sodium pentobarbital (80 mg/kg). The left buccal pouch was everted, fixed and isolated using a lead shield.
(§1) Topical dosing of animals was done three times per day. For topical treatments, a needleless tuberculin syringe, containing 0.2 ml of the test compound in 0.05M Tris (pH 8.0), was inserted into the left cheek pouch and the drug deposited into the pouch. Intraperitoneal injections of the compound were done once a day at a dose of 20 mg/kg and a drug concentration of 3-6 mg/ml in 0.05M Tris (pH 8.0). Dosing began on day −2 for all groups. In all groups treatment continued until day 16.
Mucositis Evaluation The mucositis score, weight change and survival were measured as outcomes in this study. For the evaluation of mucositis, the animals were anesthetized with inhalation anesthetics, and the left pouch everted. Mucositis was scored visually by comparison to a validated photographic scale, ranging from 0 for normal, to 5 for severe ulceration (clinical scoring). In descriptive terms, this scale is defined as follows: […]
A score of 1-2 is considered to represent a mild stage of the disease, whereas a score of 3-5 is considered to indicate moderate to severe mucositis. Following visual scoring, a photograph was taken of each animal's mucosa using a standardized technique. At the conclusion of the experiment, all films were developed and the photographs randomly numbered. At least two independent trained observers graded the photographs in blinded fashion using the above described scale (blinded scoring).

[2] = Weight change and survival in the hamster mucositis study; format: in vivo, Golden Syrian hamsters; conditions: at the doses used: 20 mg/kg IP; 0.36 and 0.072 mg/ml topical
Text: i) Every day for the period of the study (day −2 to day 28), each animal was weighed and its survival recorded (to accommodate the schedules of the study site weights were taken every other day starting on day 17 and continuing to day 28).
Male Golden Syrian hamsters (Charles River Laboratories or Harlan Sprague Dawley), aged 5 to 6 weeks, with body weights of approximately 90 g at project commencement, were used. Animals were individually numbered using an ear punch and housed in small groups of 2 animals per cage. Animals were acclimatized for at least one week prior to project commencement. During this period, the animals were observed daily in order to reject animals that present poor condition.
as §1, with “Dosing began on day −2 for all groups. In all groups treatment continued until day 16.” left out
Mucositis Evaluation The mucositis score, weight change and survival were measured as outcomes in this study. […] Mucositis was scored visually by comparison to a validated photographic scale, ranging from 0 for normal, to 5 for severe ulceration (clinical scoring). […]

Compound	doxorubicin induced cell death in Jurkat cells (Jurkat T leukemia cells; Doxorubicin 1 μM, Z-VD-fmk 10 μM, FIGS. 1A-D)	paclitaxel induced cell death in Jurkat cells (Jurkat T leukemia cells; Paclitaxel 20 μM, Z-VD-fmk 10 μM, FIGS. 2A-D)	UV irradiation induced cell death in Jurkat cells (Jurkat T leukemia cells; UV irradiation 40 J/m^2, Z-VD-fmk 10 μM, FIGS. 3A-D)	days with ulcerations (animal days with mucositis score of 3 or more) ([1]; 0.072 mg/ml (0.2 ml) topical tid) [days]	daily mucositis scores, rank sum analysis vs vehicle control ([1]; 0.072 mg/ml topical tid)	reduction in ulceration vs vehicle control ([1]; 0.072 mg/ml topical tid, p=0.061, not significant) [%]	days with ulcerations (animal days with mucositis score of 3 or more) ([1]; 0.36 mg/ml (0.2 ml) topical tid) [days]	daily mucositis scores, rank sum analysis vs vehicle control ([1]; 0.36 mg/ml topical tid)	reduction in ulceration vs vehicle control ([1]; 0.36 mg/ml topical tid, p<0.001) [%]	daily mucositis scores, rank sum analysis vs vehicle control ([1]; 20 mg/kg IP once per day)	reduction in ulceration vs vehicle control ([1]; 20 mg/kg IP once per day, p=0.068, not significant) [%]	days with ulcerations (animal days with mucositis score of 3 or more) ([1]; 20 mg/kg IP once per day) [days]	onset of ulceration ([1]; day 0 to day 16, all treatment groups)	systemic toxicity (mortality due to the treatment) [2]
CC(C)[C@H](NC(=O)OCc1ccccc1)C(=O)NC(CC(=O)O)C(=O)CF (some centres unmarked) [Z-VD-fmk]	blocks doxorubicin induced cell death	blocks paclitaxel induced cell death	blocks UV irradiation induced cell death	–	–	–	–	–	–	–	–	–	–	–
CC(C)[C@H](OC(=O)Nc1ccccc1)C(=O)NC(CC(=O)O)C(=O)CF (stereo partly drawn) [test compound, (3R,S)-5-Fluoro-3-[(2S)-3-methyl-1-oxo-2-(phenylcarbamoyloxy)butyl]amino-4-oxo-pentanoic Acid]	–	–	–	42	Significance was achieved only on day 18	25	27	significant reduction of mucositis on days 18, 20, 22 & 26	51.8	significant reduction in mucositis severity on days 20 and 22	24.8	39	no apparent reduction in the onset of ulceration	no systemic toxicity

Reference: patent US6566338B1, “Caspase inhibitors for the treatment and prevention of chemotherapy and radiation therapy induced cell death” (Cytovia, Inc., priority 1999, dated 2003)
